Earlier results in patent publication US20190282513A1, “COMPOUND FOR USE IN RELIEF OF PAIN AND METHOD TO PRODUCE THEREOF” (priority 2018, published 2019).

Columns and labels:
[1] = taken orally
[2] = compared with ibuprofen

Structure (SMILES) | treatment of chronic pain [1] | anti-inflammatory analgesic effect in cancer-related pain | anti-inflammatory properties [2]
C=C(C)[C@@H]1CCC(C)=C[C@H]1c1c(O)cc(CCCCC)cc1O [CBD, cannabidiol] | effectively treated chronic pain | effective anti-inflammatory analgesic | –
C/C=C(/C=O)[C@@H](CC=O)CC(=O)OCCc1ccc(O)cc1 [oleocanthal] | – | – | anti-inflammatory properties similar to ibuprofen
